For 26 molecules, EC50, IC50 and Activity results are on record in ChEMBL document CHEMBL1157133, “Design, synthesis, and interaction study of quinazoline-2(1H)-thione derivatives as novel potential Bcl-xL inhibitors” (J Med Chem, 2010).

For orientation: EC50 means the concentration needed to bring the measured effect to its halfway point. The low end stands for a more potent agent, the high end for a less potent agent. As a reminder, the IC50 is the concentration needed to halve the response being measured. A lower IC50 goes with greater potency.

Test [1] deals with K562. In words: cells. The conditions noted are these: Homo sapiens, K562, 48 h.
Description: Cytotoxicity against human K562 cells after 48 hrs by MTT assay
Test [2] deals with T1, Bcl-2-like protein 1 (Homo sapiens, UniProt Q07817). In words: Inhibition of human Bcl-XL.
T1 sequence (Q07817 whole entry): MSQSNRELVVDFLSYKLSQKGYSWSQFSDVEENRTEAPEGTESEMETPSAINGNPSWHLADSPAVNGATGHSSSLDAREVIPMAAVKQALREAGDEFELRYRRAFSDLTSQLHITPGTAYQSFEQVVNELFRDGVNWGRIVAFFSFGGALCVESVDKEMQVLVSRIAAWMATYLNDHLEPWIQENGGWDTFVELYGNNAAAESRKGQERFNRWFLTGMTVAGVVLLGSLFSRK
The subject of test [3] is PC-3. In words: Cytotoxicity against human PC3 cells after 48 hrs by MTT assay. The note with it: for EC50: PC-3, 48 h. Format: functional, cell-based. For orientation: Formazan colour is commonly taken as a measure of viable cells.
The nature of test [4]: Cytotoxicity against human Bel7404 cells after 48 hrs by MTT assay. The conditions noted are these: BEL-7404, 48 h.
The test system of test [5] is OVCAR-3. The test is described as follows: Cytotoxicity against human OVCAR-3 cells after 48 hrs by MTT assay. The conditions noted are these: OVCAR-3, 48 h.
The test system of test [6] is A2780. In words: cells. The conditions noted are these: Homo sapiens, A2780, 48 h.
Description: Cytotoxicity against human A2780 cells after 48 hrs by MTT assay
The test system of test [7] is HepG2. The test is described as follows: cells. The conditions noted are these: Homo sapiens, HepG2, 48 h.
Description: Cytotoxicity against human HepG2 cells after 48 hrs by MTT assay
Test [8] concerns the target T1, Bcl-2-like protein 1. In words: Displacement of FITC-labeled BH3 peptide from human Bcl-XL after 1 hr by fluorescence polarization assay.
The target of test [9] is Apoptosis regulator Bcl-2 (Homo sapiens, UniProt P10415). In words: Displacement of FITC labeled BH3 peptide from His-tagged human BCL2 after 1 hr by fluorescence polarization assay. On the technique in general: Fluorescence polarisation rises when a labelled molecule tumbles more slowly, as on binding a larger partner.
Apoptosis regulator Bcl-2, sequence (P10415 whole entry): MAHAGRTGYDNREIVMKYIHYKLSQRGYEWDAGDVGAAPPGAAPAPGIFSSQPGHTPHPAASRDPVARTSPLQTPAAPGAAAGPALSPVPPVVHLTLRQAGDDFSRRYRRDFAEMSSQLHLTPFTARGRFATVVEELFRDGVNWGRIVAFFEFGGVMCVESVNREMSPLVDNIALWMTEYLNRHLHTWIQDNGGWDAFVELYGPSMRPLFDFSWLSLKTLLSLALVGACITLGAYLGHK
The target in test [10] is Induced myeloid leukemia cell differentiation protein Mcl-1 homolog (Mus musculus, UniProt P97287). In words: Displacement of FITC-labeled BH3 peptide from GST-tagged mouse Mcl1 after 1 hr by fluorescence polarization assay.
Induced myeloid leukemia cell differentiation protein Mcl-1 homolog, sequence (P97287 whole entry): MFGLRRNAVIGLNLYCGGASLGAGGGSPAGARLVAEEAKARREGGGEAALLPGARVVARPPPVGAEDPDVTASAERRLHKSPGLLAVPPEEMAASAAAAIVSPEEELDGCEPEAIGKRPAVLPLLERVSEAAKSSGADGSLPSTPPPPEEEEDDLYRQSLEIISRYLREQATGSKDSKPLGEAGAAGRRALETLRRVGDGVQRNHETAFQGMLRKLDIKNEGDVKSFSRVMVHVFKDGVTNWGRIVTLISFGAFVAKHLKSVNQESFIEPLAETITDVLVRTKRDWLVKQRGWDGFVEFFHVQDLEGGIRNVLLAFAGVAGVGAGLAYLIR

Consider `COc1ccccc1C1C=C(c2ccccc2)N=c2s/c(=C\c3cccc(OCC(=O)O)c3)c(=O)n21` (stereo not drawn), for which the 50% effective concentration (EC50) in [1] is above 100 µM; in test [3] it was 65.2 µM; in test [4], above 500 µM; in test [5], 22.2 µM; in test [6] it was 9.98 µM; in [7] it was 175 µM. The molecule further came in with an IC50 in [2] of 72 µM.

`COc1ccccc1C1C2=C(N=c3s/c(=C\c4cccc(OCC(=O)O)c4)c(=O)n31)c1cccc(OC(=O)c3ccccc3-c3ccccc3)c1CC2` (stereo not drawn) yielded an IC50 in test [2] above 100 µM. This molecule also returned a half-maximal effective concentration (EC50) in test [3] of 16.6 µM.

Regarding `O=C(O)c1cccc(-c2ccc(/C=c3\sc4n(c3=O)C(c3cccc([N+](=O)[O-])c3)C3=C(N=4)c4ccccc4CC3)o2)c1` (stereo not drawn), the concentration for a half-maximal effect (EC50) in test [1] turned out to be 17.3 µM; in test [3] it was 44.9 µM; in [4], 65.1 µM; in test [5], 26.9 µM; in [6] it was 3.9 µM; in test [7], 13.4 µM. Also, in [2], half-maximal inhibition (IC50) required 1.9 µM. Further, the Activity entry in test [3] was “Dose-dependent effect”.

On to `O=C(O)COc1cccc(/C=c2\sc3n(c2=O)C(c2ccccc2)C2=C(N=3)c3ccccc3CC2)c1` (stereo not drawn), for which the concentration for a half-maximal effect (EC50) in test [1] is 7.04 µM; in test [3], above 100 µM; in [4], 7.8 µM; in test [5], 2.73 µM; in [6], 5.49 µM; in test [7], 14.5 µM. In test [2], this molecule registered a half-inhibitory concentration (IC50) of 10.3 µM.

`COc1ccccc1C1C2=C(N=c3sc(=Cc4ccc(C=CC(=O)O)cc4)c(=O)n31)c1ccccc1CC2` (stereo not drawn): the EC50 in [1] was above 100 µM; in test [3], 17.3 µM; in [4], 11.2 µM; in [5], 3.29 µM; in [6], 7.85 µM; in [7], 49.8 µM. In [2], the half-inhibitory concentration (IC50) amounted to 12.7 µM. Moreover, in test [3], the Activity entry is “Dose-dependent effect”.

Turning to `O=C(O)c1cccc(-c2ccc(/C=c3\sc4n(c3=O)C(c3cccc(F)c3)C3=C(N=4)c4ccccc4CC3)o2)c1` (stereo not drawn), the EC50 in test [1] was above 100 µM; in [3], above 100 µM; in [4] it was 51.3 µM; in [5] it was 12 µM; in [6] it was 5.81 µM; in test [7], 15.4 µM. Moreover, the IC50 was determined as 3 µM in test [2], 3 µM in test [8], 3.2 µM in [9] and 8.6 µM in test [10]. For the same molecule, in test [3], the Activity entry is “Dose-dependent effect”.

As to `COc1ccccc1C1C2=C(N=c3s/c(=C\c4cccc(OCC(=O)O)c4)c(=O)n31)c1cccc(OCc3ccccc3)c1CC2` (stereo not drawn), the IC50 in test [2] was above 100 µM. Moreover, in test [3], the EC50 is above 100 µM.

As for `COc1ccccc1C1C2=C(N=c3s/c(=C\c4ccccc4OCC(=O)O)c(=O)n31)c1ccccc1CC2` (stereo not drawn), the half-maximal effective concentration (EC50) in test [1] came to 7.99 µM; in test [4] it was 9.5 µM; in test [5] it was 4.44 µM; in test [6] it was 7.81 µM; in test [7] it was 41.9 µM. Further, it took 12.1 µM to reach half-maximal inhibition in test [2] (IC50). Besides, the Activity entry in test [3] was “Dose-dependent effect”.

On to `O=C(O)c1cccc(-c2ccc(/C=c3\sc4n(c3=O)C(c3ccco3)C3=C(N=4)c4ccccc4CC3)o2)c1` (stereo not drawn), for which the EC50 in test [1] is above 100 µM; in test [3], 79.5 µM; in test [4], above 500 µM; in test [5], above 100 µM; in test [6], 15.8 µM; in [7] it was above 500 µM. In test [2], the half-maximal inhibitory concentration (IC50) was determined as 35.9 µM. Moreover, in test [3], the Activity result was “Dose-dependent effect”.

On to `O=C(O)c1cccc(-c2ccc(/C=c3\sc4n(c3=O)C(c3cccc(F)c3)C3=C(N=4)/C(=C/c4cccc(F)c4)CCC3)o2)c1` (stereo not drawn), for which the EC50 in test [1] is above 100 µM; in test [3], 51.4 µM; in test [4], 3.8 µM; in [5] it was 11.7 µM; in [6], 5.36 µM; in [7], 8 µM. The IC50 in [2] is above 100 µM.

With `O=C(O)COc1cccc(/C=c2\sc3n(c2=O)C(c2cccc(F)c2)C2=C(N=3)c3ccccc3CC2)c1` (stereo not drawn), the EC50 in test [1] was above 100 µM; in [3], above 100 µM; in test [4] it was 50.9 µM; in [5], 2.8 µM; in [6], 16.9 µM; in [7], 186 µM. In test [2], this molecule returned a concentration for half-maximal inhibition (IC50) of 5.4 µM. In addition, in test [3], the Activity result is “Dose-dependent effect”.

With `COc1ccccc1C1C2=C(N=c3s/c(=C\c4ccc(-c5cccc(C(=O)O)c5)cc4)c(=O)n31)c1ccccc1CC2` (stereo not drawn), the concentration giving a half-maximal response (EC50) in [1] is 9.41 µM; in test [3], 67.1 µM; in [4] it was 4.5 µM; in test [5] it was 7.17 µM; in test [6], 2.23 µM; in [7] it was 7.2 µM. In test [2], this molecule registered a half-inhibitory concentration (IC50) of 26.7 µM.

In turn, `COc1ccc2c(c1)CCC1=C2N=c2s/c(=C\c3cccc(OCC(=O)O)c3)c(=O)n2C1c1ccccc1OC` (stereo not drawn) had an IC50 in test [2] above 100 µM. In test [3], the EC50 is above 100 µM.

Take `COc1ccccc1C1C2=C(N=c3s/c(=C\c4ccc(-c5cccc(C(=O)O)c5)o4)c(=O)n31)c1ccccc1CC2` (stereo not drawn): the concentration for a half-maximal effect (EC50) in test [1] was found to be 20.8 µM; in test [3], 23.2 µM; in test [4], 140 µM; in [5], 9.06 µM; in [6] it was 4.94 µM; in [7], 35.6 µM. The same molecule had an IC50 in test [2] of 5.3 µM.

For the molecule `CC(C)C(C(=O)O)C1C(=O)/C(=C/c2ccc(Br)cc2)SC1=S` (stereo not drawn), in test [2], the half-inhibitory concentration (IC50) turned out to be 6.2 µM.

As to `CCOC(=O)COc1cccc(/C=c2\sc3n(c2=O)C(c2ccccc2OC)C2=C(N=3)c3ccccc3CC2)c1` (stereo not drawn), the concentration giving a half-maximal response (EC50) was above 100 µM in test [1]; 45 µM in [3]; 92.3 µM in [4]; 47.5 µM in test [5]; 17.8 µM in [6]; 32.3 µM in [7]. In addition, in test [2], 100 µM corresponded to half-maximal inhibition (IC50).

`O=C(O)c1cccc(-c2ccc(/C=c3\sc4n(c3=O)C(c3ccccc3)C3=C(N=4)c4ccccc4CC3)o2)c1` (stereo not drawn): the 50% effective concentration (EC50) in [1] was above 100 µM; in [3] it was above 100 µM; in [4], 71.7 µM; in test [5], 18.9 µM; in test [6], 7.46 µM; in test [7], 13.6 µM. Moreover, the midpoint of inhibition in test [2], the IC50, lay at 12.6 µM.

Take `O=C(O)c1cccc(-c2ccc(/C=c3\sc4n(c3=O)C(c3ccccc3F)C3=C(N=4)c4ccccc4CC3)o2)c1` (stereo not drawn): the EC50 in test [1] is above 100 µM; in test [3], 31.2 µM; in [4] it was above 500 µM; in test [5], 76.6 µM; in test [6], above 100 µM; in [7] it was above 500 µM. The IC50 in [2] came to 6.2 µM.

As for `O=C(O)COc1cccc(/C=c2\sc3n(c2=O)C(c2ccco2)C2=C(N=3)c3ccccc3CC2)c1` (stereo not drawn), the EC50 is above 100 µM in [1]; 10.2 µM in [3]; 14 µM in test [4]; 8.5 µM in test [5]; 15.3 µM in test [6]; 72.8 µM in [7]. Further, in [2], half-maximal inhibition (IC50) required 40.4 µM. Besides, the Activity result in test [3] was “Dose-dependent effect”.

In the case of `COc1ccc2c(c1)CCC1=C2N=c2s/c(=C\c3ccc(-c4cccc(C(=O)O)c4)o3)c(=O)n2C1c1cccc(F)c1` (stereo not drawn), the IC50 in test [2] is above 100 µM. Also, in test [3], the Activity entry is “Dose-dependent effect” and the concentration giving a half-maximal response (EC50) was found to be 35.2 µM.

Take `O=C(O)COc1cccc(/C=c2\sc3n(c2=O)C(c2cccc(F)c2)C2=C(N=3)/C(=C/c3cccc(F)c3)CCC2)c1` (stereo not drawn): the 50% effective concentration (EC50) in test [1] is above 100 µM; in [3], 12 µM; in test [4], 4.3 µM; in test [5], 3.27 µM; in test [6] it was 6.8 µM; in [7] it was 15.9 µM. For the same molecule, the half-maximal inhibitory concentration (IC50) in test [2] was above 100 µM.

As to `COc1ccccc1C1C2=C(N=c3s/c(=C\c4ccc(OCC(=O)O)cc4)c(=O)n31)c1ccccc1CC2` (stereo not drawn), the EC50 in [1] was determined as 5.62 µM; in test [3], 11.1 µM; in [4], 6.1 µM; in test [5], 2.85 µM; in test [6], 6.13 µM; in test [7], 15.3 µM. In test [2], this molecule gave an IC50 of 36 µM.

In the case of `COc1ccccc1C1C2=C(N=c3s/c(=C\c4ccc(C(=O)O)cc4)c(=O)n31)c1ccccc1CC2` (stereo not drawn), the 50% effective concentration (EC50) was 16.1 µM in [1]; 63.5 µM in test [3]; 9.7 µM in [4]; 3.35 µM in [5]; 7.94 µM in [6]; 45 µM in test [7]. The half-maximal inhibitory concentration (IC50) in [2] worked out at 12.6 µM.

Consider `O=C(O)c1cccc(-c2ccc(/C=c3\sc4n(c3=O)C(c3ccc(F)cc3)C3=C(N=4)c4ccccc4CC3)o2)c1` (stereo not drawn), for which the half-maximal effective concentration (EC50) in [1] stood at 26.3 µM; in [3], 13.4 µM; in test [4], 25.9 µM; in [5], 5.85 µM; in [6], 7.38 µM; in [7] it was 35.1 µM. This molecule registered an IC50 in [2] of 5.2 µM. Further, the Activity result in test [3] is “Dose-dependent effect”.

Regarding `O=C(O)c1cccc(-c2ccc(/C=c3\sc4n(c3=O)C(c3cccc5ccccc35)C3=C(N=4)c4ccccc4CC3)o2)c1` (stereo not drawn), the concentration for a half-maximal effect (EC50) is 22.9 µM in test [1]; 24.2 µM in test [3]; 204 µM in test [4]; 18.7 µM in test [5]; 6.34 µM in [6]; above 500 µM in [7]. The molecule further returned a half-inhibitory concentration (IC50) in [2] of 13.4 µM. The Activity result in test [3] is “Dose-dependent effect”.

As to `O=C(O)COc1cccc(/C=c2\sc3n(c2=O)C(c2cccc4ccccc24)C2=C(N=3)c3ccccc3CC2)c1` (stereo not drawn), the EC50 in [1] came to 6.33 µM; in [3] it was 68 µM; in test [4], 3.1 µM; in [5] it was 2.21 µM; in test [6], 7.52 µM; in test [7], 19.9 µM. Moreover, the 50% inhibitory concentration (IC50) in [2] is 19.7 µM.
